Laboratory results taken from ChEMBL document CHEMBL1806450, “Synthesis of an aryloxy oxo pyrimidinone library that displays ALK-selective inhibition” (Bioorg Med Chem Lett, 2011).

Columns and labels:
[1] = target: Hepatocyte growth factor receptor (Homo sapiens, UniProt P08581)
Description: Inhibition of recombinant MET using biotinylated-poly(GT) peptide as substrate after 60 mins

[2] = target: Insulin receptor (Homo sapiens, UniProt P06213)
Description: Inhibition of recombinant IRK using biotinylated-poly(GT) peptide as substrate after 60 mins

[3] = target: ALK tyrosine kinase receptor (Homo sapiens, UniProt Q9UM73)
ALK tyrosine kinase receptor, sequence (Q9UM73 whole entry): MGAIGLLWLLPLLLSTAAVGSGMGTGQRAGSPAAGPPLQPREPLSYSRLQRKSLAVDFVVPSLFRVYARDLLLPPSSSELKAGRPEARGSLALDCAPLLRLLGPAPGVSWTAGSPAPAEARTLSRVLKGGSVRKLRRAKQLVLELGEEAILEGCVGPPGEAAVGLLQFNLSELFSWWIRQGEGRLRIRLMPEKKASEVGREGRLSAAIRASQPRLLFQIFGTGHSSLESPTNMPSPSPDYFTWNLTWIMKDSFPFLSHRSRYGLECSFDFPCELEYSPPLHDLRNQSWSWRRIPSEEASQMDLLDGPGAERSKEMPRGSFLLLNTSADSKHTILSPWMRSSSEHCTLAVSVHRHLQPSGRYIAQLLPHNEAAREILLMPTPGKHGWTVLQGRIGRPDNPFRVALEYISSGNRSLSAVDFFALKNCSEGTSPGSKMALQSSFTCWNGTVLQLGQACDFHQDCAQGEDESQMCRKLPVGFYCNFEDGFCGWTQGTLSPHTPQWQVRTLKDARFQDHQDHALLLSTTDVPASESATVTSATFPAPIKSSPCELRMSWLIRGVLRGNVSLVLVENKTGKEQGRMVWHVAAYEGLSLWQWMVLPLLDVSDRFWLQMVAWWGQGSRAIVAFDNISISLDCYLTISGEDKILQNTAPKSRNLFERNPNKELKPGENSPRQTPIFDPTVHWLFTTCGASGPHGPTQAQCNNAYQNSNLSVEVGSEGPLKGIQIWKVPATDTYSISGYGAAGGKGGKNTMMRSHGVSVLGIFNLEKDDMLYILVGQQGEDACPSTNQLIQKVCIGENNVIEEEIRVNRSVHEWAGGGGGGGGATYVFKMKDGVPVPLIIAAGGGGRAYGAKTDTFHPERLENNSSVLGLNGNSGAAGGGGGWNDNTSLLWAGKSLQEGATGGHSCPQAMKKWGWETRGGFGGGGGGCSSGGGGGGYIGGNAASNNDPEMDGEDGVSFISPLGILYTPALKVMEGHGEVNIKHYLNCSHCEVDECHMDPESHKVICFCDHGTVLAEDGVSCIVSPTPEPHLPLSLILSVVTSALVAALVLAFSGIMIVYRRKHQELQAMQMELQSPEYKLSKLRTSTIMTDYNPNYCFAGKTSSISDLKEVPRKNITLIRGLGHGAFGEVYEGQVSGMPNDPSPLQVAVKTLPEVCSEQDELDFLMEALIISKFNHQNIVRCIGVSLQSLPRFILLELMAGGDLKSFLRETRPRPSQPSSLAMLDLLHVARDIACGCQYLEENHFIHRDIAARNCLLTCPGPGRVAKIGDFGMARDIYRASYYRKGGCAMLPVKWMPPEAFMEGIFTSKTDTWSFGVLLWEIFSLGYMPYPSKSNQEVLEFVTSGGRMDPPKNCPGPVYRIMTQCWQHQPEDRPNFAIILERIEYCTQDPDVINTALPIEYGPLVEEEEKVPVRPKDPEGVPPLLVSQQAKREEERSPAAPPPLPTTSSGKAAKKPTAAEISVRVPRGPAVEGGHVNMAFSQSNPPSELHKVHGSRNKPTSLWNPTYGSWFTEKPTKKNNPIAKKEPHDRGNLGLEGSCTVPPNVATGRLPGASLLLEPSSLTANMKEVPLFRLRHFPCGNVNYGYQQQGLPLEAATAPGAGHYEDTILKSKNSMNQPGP
Description: Inhibition of 6xHis-tagged NPM-ALK using biotinylated-poly(GT) peptide as substrate after 60 mins

Hepatocyte growth factor receptor, sequence (P08581 whole entry): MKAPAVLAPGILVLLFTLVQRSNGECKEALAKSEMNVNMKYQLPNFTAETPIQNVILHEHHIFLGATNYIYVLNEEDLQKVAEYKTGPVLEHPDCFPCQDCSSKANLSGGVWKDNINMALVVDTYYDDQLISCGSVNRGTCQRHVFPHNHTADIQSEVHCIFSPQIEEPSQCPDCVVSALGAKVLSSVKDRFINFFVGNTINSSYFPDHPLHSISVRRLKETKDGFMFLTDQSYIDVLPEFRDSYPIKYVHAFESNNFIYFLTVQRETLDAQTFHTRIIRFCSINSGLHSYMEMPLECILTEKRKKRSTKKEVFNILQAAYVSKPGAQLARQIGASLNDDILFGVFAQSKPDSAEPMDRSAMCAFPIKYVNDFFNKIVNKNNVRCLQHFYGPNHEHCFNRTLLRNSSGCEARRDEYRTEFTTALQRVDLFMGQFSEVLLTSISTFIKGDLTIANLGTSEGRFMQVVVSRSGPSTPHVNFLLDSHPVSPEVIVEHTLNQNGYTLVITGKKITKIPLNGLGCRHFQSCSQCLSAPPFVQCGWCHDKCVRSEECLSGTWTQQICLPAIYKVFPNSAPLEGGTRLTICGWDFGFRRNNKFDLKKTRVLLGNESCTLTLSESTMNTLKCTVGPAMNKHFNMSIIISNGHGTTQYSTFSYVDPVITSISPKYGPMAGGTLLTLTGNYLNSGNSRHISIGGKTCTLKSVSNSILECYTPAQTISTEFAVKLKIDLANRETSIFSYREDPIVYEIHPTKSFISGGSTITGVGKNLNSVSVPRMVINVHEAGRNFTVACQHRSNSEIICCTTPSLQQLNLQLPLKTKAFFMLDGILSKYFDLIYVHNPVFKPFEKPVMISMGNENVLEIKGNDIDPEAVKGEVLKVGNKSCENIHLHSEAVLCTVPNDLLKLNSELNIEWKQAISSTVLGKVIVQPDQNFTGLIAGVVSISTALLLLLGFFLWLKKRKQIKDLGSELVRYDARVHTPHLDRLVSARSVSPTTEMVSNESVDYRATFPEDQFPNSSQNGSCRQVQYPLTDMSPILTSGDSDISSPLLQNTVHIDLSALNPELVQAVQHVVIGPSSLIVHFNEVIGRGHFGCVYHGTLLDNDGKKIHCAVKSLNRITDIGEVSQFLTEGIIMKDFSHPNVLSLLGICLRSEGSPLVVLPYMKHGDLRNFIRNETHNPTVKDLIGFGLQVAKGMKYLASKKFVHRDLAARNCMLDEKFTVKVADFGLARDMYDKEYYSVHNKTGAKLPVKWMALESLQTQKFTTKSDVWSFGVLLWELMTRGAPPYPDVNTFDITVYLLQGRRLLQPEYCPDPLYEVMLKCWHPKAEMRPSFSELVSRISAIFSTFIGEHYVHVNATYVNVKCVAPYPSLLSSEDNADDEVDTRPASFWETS
Insulin receptor, sequence (P06213 28-758 limits assumed): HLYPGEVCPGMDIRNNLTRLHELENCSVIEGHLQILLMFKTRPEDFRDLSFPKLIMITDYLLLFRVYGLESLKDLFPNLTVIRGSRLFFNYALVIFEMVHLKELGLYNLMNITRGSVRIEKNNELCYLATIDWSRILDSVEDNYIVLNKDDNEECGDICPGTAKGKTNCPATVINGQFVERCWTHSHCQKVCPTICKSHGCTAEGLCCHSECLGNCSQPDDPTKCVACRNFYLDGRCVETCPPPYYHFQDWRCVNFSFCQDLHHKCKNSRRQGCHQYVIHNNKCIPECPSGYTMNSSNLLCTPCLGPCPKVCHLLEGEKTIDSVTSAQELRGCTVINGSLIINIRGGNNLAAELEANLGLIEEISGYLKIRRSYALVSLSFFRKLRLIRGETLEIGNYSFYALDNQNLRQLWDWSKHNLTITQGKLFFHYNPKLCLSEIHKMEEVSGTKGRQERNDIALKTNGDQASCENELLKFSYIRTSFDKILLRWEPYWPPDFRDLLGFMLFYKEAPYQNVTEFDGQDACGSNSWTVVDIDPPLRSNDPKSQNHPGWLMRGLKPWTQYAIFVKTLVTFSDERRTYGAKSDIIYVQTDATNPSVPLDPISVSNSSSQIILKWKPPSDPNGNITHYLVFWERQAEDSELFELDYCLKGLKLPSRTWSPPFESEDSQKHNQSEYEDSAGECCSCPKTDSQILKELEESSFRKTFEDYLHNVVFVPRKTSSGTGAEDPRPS
Insulin receptor, sequence (P06213 763-1382 limits assumed): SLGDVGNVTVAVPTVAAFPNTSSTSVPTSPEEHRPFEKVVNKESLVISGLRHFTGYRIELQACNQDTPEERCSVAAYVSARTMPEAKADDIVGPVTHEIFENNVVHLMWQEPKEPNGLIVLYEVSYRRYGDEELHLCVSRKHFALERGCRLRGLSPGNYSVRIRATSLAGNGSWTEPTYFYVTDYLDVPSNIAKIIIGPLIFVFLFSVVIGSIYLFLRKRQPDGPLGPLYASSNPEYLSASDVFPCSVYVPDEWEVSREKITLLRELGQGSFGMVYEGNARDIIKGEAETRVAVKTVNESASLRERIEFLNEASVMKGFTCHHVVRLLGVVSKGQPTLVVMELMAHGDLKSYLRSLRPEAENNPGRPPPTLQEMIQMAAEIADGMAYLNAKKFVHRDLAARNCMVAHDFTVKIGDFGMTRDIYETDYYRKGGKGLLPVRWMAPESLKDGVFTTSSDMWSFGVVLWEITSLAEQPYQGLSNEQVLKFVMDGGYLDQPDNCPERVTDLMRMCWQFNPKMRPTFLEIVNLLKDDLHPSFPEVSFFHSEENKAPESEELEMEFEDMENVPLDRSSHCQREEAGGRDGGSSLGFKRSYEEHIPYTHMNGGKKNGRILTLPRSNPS

Structure (SMILES): CC(=O)/C=C/c1c(Oc2ccc(NC(C)=O)cc2)nc[nH]c1=O
- IC50 [1]: > 40 µM
- IC50 [2]: > 40 µM
- IC50 [3]: 6.64 µM

Structure (SMILES): COC(=O)c1cccc(Oc2nc[nH]c(=O)c2C2CC(C)=NN2C(C)=O)c1 (stereo not drawn)
- IC50 [1]: > 40 µM
- IC50 [2]: > 40 µM
- IC50 [3]: 9 µM

Structure (SMILES): COC(=O)c1cc(Cl)ccc1Oc1nc[nH]c(=O)c1/C=C/C(C)=O
- IC50 [1]: > 40 µM
- IC50 [2]: > 40 µM
- IC50 [3]: > 40 µM

Structure (SMILES): COC(=O)c1cccc(Oc2nc[nH]c(=O)c2-c2ccccc2)c1
- IC50 [1]: > 40 µM
- IC50 [2]: > 40 µM
- IC50 [3]: > 40 µM

Structure (SMILES): CC(=O)/C=C/c1c(Oc2ccc(F)cc2)nc[nH]c1=O
- IC50 [1]: > 40 µM
- IC50 [2]: > 40 µM
- IC50 [3]: > 40 µM

Structure (SMILES): CC(=O)/C=C/c1c(Oc2ccccc2Cl)nc[nH]c1=O
- IC50 [1]: > 40 µM
- IC50 [2]: > 40 µM
- IC50 [3]: > 40 µM

Structure (SMILES): CCCCCCOC(=O)c1ccccc1Oc1nc[nH]c(=O)c1/C=C/C(C)=O
- IC50 [1]: > 40 µM
- IC50 [2]: > 40 µM
- IC50 [3]: > 40 µM

Structure (SMILES): CCOC(=O)/C=C/c1c(Oc2cccc(C#N)c2)nc[nH]c1=O
- IC50 [1]: > 40 µM
- IC50 [2]: > 40 µM
- IC50 [3]: > 40 µM

Structure (SMILES): CC(=O)/C=C/c1c(Oc2ccc(O)cc2)nc[nH]c1=O
- IC50 [1]: > 40 µM
- IC50 [2]: > 40 µM
- IC50 [3]: 7.57 µM

Structure (SMILES): COC(=O)c1ccc(OC)cc1Oc1nc[nH]c(=O)c1/C=C/C(C)=O
- IC50 [1]: > 40 µM
- IC50 [2]: > 40 µM
- IC50 [3]: 10.2 µM

Structure (SMILES): CCOC(=O)/C=C/c1c(Oc2cccc(OC)c2)nc[nH]c1=O
- IC50 [1]: > 40 µM
- IC50 [2]: > 40 µM
- IC50 [3]: > 40 µM

Structure (SMILES): CC(=O)/C=C/c1c(Oc2ccc(C)cc2)nc[nH]c1=O
- IC50 [1]: > 40 µM
- IC50 [2]: > 40 µM
- IC50 [3]: > 40 µM

Structure (SMILES): CCOC(=O)/C=C/c1c(Oc2ccc(F)cc2)nc[nH]c1=O
- IC50 [1]: > 40 µM
- IC50 [2]: > 40 µM
- IC50 [3]: > 40 µM

Structure (SMILES): CC(=O)/C=C/c1c(Oc2cccc(C(C)=O)c2)nc[nH]c1=O
- IC50 [1]: > 40 µM
- IC50 [2]: > 40 µM
- IC50 [3]: 6.25 µM

Structure (SMILES): CC(=O)/C=C/c1c(Oc2cc(C(F)(F)F)ccc2Cl)nc[nH]c1=O
- IC50 [1]: > 40 µM
- IC50 [2]: > 40 µM
- IC50 [3]: 9.87 µM

Structure (SMILES): CCOC(=O)/C=C/c1c(Oc2ccccc2Cl)nc[nH]c1=O
- IC50 [1]: > 40 µM
- IC50 [2]: > 40 µM
- IC50 [3]: > 40 µM

Structure (SMILES): CC(=O)/C=C/c1c(Oc2cccc(C#N)c2)nc[nH]c1=O
- IC50 [1]: > 40 µM
- IC50 [2]: > 40 µM
- IC50 [3]: > 40 µM

Structure (SMILES): CC(=O)/C=C/c1c(Oc2ccccc2C(C)=O)nc[nH]c1=O
- IC50 [1]: > 40 µM
- IC50 [2]: > 40 µM
- IC50 [3]: > 40 µM

Structure (SMILES): CCOC(=O)c1ccccc1Oc1nc[nH]c(=O)c1/C=C/C(C)=O
- IC50 [1]: > 40 µM
- IC50 [2]: > 40 µM
- IC50 [3]: 7.54 µM

Structure (SMILES): CCOC(=O)/C=C/c1c(Oc2cccc(C(=O)OC)c2)nc[nH]c1=O
- IC50 [1]: > 40 µM
- IC50 [2]: > 40 µM
- IC50 [3]: > 40 µM

Structure (SMILES): COC(=O)c1cccc(Oc2nc[nH]c(=O)c2-c2cccc(C)c2)c1
- IC50 [1]: > 40 µM
- IC50 [2]: > 40 µM
- IC50 [3]: > 40 µM

Structure (SMILES): COc1cc(Cl)ccc1Oc1nc[nH]c(=O)c1/C=C/C(C)=O
- IC50 [1]: > 40 µM
- IC50 [2]: > 40 µM
- IC50 [3]: > 40 µM

Structure (SMILES): COC(=O)c1cccc(Oc2nc[nH]c(=O)c2C2CC(C)=NN2C)c1 (stereo not drawn)
- IC50 [1]: > 40 µM
- IC50 [2]: > 40 µM
- IC50 [3]: > 40 µM

Structure (SMILES): COC(=O)c1cccc(Oc2nc[nH]c(=O)c2-c2cccc(N)c2)c1
- IC50 [1]: > 40 µM
- IC50 [2]: > 40 µM
- IC50 [3]: > 40 µM

Structure (SMILES): CCOC(=O)/C=C/c1c(Oc2ccc(C)cc2)nc[nH]c1=O
- IC50 [1]: > 40 µM
- IC50 [2]: > 40 µM
- IC50 [3]: > 40 µM

Structure (SMILES): CC(=O)/C=C/c1c(Oc2ccc(C(C)=O)c(F)c2)nc[nH]c1=O
- IC50 [1]: > 40 µM
- IC50 [2]: > 40 µM
- IC50 [3]: > 40 µM

Structure (SMILES): CCOC(=O)/C=C/c1c(Oc2ccc(C(C)(C)C)cc2)nc[nH]c1=O
- IC50 [1]: > 40 µM
- IC50 [2]: > 40 µM
- IC50 [3]: > 40 µM

Structure (SMILES): CCOC(=O)/C=C/c1c(Oc2ccc(Cl)cc2OC)nc[nH]c1=O
- IC50 [1]: > 40 µM
- IC50 [2]: > 40 µM
- IC50 [3]: > 40 µM

Structure (SMILES): COC(=O)c1cccc(Oc2nc[nH]c(=O)c2-c2ccncc2)c1
- IC50 [1]: > 40 µM
- IC50 [2]: > 40 µM
- IC50 [3]: > 40 µM

Structure (SMILES): CC(=O)/C=C/c1c(Oc2ccc(C(C)(C)C)cc2)nc[nH]c1=O
- IC50 [1]: > 40 µM
- IC50 [2]: > 40 µM
- IC50 [3]: > 40 µM

Structure (SMILES): CC(=O)/C=C/c1c(Oc2ccc(C)cc2C(C)=O)nc[nH]c1=O
- IC50 [1]: > 40 µM
- IC50 [2]: > 40 µM
- IC50 [3]: > 40 µM

Structure (SMILES): COc1cccc(Oc2nc[nH]c(=O)c2/C=C/C(C)=O)c1
- IC50 [1]: > 40 µM
- IC50 [2]: > 40 µM
- IC50 [3]: > 40 µM

Structure (SMILES): COc1cccc(OC)c1Oc1nc[nH]c(=O)c1/C=C/C(C)=O
- IC50 [1]: > 40 µM
- IC50 [2]: > 40 µM
- IC50 [3]: > 40 µM

Structure (SMILES): COC(=O)c1cccc(Oc2nc[nH]c(=O)c2CCC(C)=O)c1
- IC50 [1]: > 40 µM
- IC50 [2]: > 40 µM
- IC50 [3]: > 40 µM

Structure (SMILES): COC(=O)c1cccc(Oc2nc[nH]c(=O)c2/C=C/C(C)=O)c1
- IC50 [1]: 4.01 µM
- IC50 [2]: > 40 µM
- IC50 [3]: 3.03 µM

Structure (SMILES): CCOC(=O)/C=C/c1c(Oc2c(Cl)cccc2Cl)nc[nH]c1=O
- IC50 [1]: > 40 µM
- IC50 [2]: > 40 µM
- IC50 [3]: > 40 µM

Structure (SMILES): COC(=O)c1cc(OC)ccc1Oc1nc[nH]c(=O)c1/C=C/C(C)=O
- IC50 [1]: > 40 µM
- IC50 [2]: > 40 µM
- IC50 [3]: > 40 µM

Structure (SMILES): CCOC(=O)/C=C/c1c(Oc2c(OC)cccc2OC)nc[nH]c1=O
- IC50 [1]: > 40 µM
- IC50 [2]: > 40 µM
- IC50 [3]: > 40 µM

Structure (SMILES): COC(=O)c1cccc(Oc2nc[nH]c(=O)c2C2CC(C)=NN2)c1 (stereo not drawn)
- IC50 [1]: > 40 µM
- IC50 [2]: > 40 µM
- IC50 [3]: > 40 µM

Structure (SMILES): CC(=O)/C=C/c1c(Oc2ccc(C#N)cc2)nc[nH]c1=O
- IC50 [1]: > 40 µM
- IC50 [2]: > 40 µM
- IC50 [3]: 6.91 µM

Structure (SMILES): CC(=O)/C=C/c1c(Oc2c(Cl)cccc2Cl)nc[nH]c1=O
- IC50 [1]: > 40 µM
- IC50 [2]: > 40 µM
- IC50 [3]: > 40 µM

Structure (SMILES): COC(=O)c1cccc(Oc2nc[nH]c(=O)c2-c2cccc(OC)c2)c1
- IC50 [1]: > 40 µM
- IC50 [2]: > 40 µM
- IC50 [3]: > 40 µM

Structure (SMILES): CC(=O)/C=C/c1c(Oc2c(C)cc(C(C)=O)cc2C)nc[nH]c1=O
- IC50 [1]: > 40 µM
- IC50 [2]: > 40 µM
- IC50 [3]: > 40 µM

Structure (SMILES): COc1cc(Oc2nc[nH]c(=O)c2/C=C/C(C)=O)c(C(C)=O)cc1OC
- IC50 [1]: > 40 µM
- IC50 [2]: > 40 µM
- IC50 [3]: 7.54 µM

Structure (SMILES): CCOC(=O)/C=C/c1c(Oc2ccc(OC)cc2C(=O)OC)nc[nH]c1=O
- IC50 [1]: > 40 µM
- IC50 [2]: > 40 µM
- IC50 [3]: > 40 µM

Structure (SMILES): CCOC(=O)c1ccc(Oc2nc[nH]c(=O)c2/C=C/C(C)=O)cc1
- IC50 [1]: > 40 µM
- IC50 [2]: > 40 µM
- IC50 [3]: > 40 µM
